Laboratory results as given in patent US11753395B2 (Kinnate Biopharma Inc., priority 2021, dated 2023).

Experiments:
[1] = biological target: T1, MET D1228N (Homo sapiens, UniProt P08581, D1228N); test: MET D1228N Mobility Shift Assay; conditions: biochemical assay IC50; 100 μM ATP, 60 minute kinase reaction
T1 construct: purchased Signalchem M52-12IG
Procedure: (§1) Small molecule inhibition of MET D1228N kinase activity was evaluated using a fluorescence -based microfluidic mobility shift assay. MET D1228N catalyzes the production of ADP from ATP during phosphoryl transfer to the substrate peptide, FLPeptide30 (5-FAM-KKKKEEIYFFF -CONH2) (Perkin Elmer, 760430). MET D1228N enzyme (Signalchem, M52-12IG) at 0.313 nM was prepared with 10 mM MgCl2 and 1.5 μM substrate peptide in a buffer containing 50 mM HEPES, 1 mM EGTA, 0.01% Brij-35, 0.05% BSA, and 2 mM DTT and pre-incubated at room temperature for 30 min prior to the start of the reaction. 100 μM ATP was added to start the reaction. The mobility shift assay electrophoretically separates the fluorescently labeled peptides (substrate and phosphorylated product) following the 60 minute kinase reaction. The reaction was terminated by addition of 0.5 M EDTA. Both substrate and product were measured and the ratio of these values used to generate % conversion of substrate to product by the LabChip EZ reader (Perkin Elmer). ICso values were calculated using the inhibition of conversion ratio using Dotmatics Knowledge Solutions Studies curve fitting environment (Dotmatics, Bishops Stortford, UK, CM23) and are presented in Table 2.

[2] = biological target: T2, Ba/F3-TPR-MET cells (Homo sapiens, UniProt P08581); test: CellTiter-Glo Cell Viability Assay, Ba/F3-TPR-MET; format: cell-based; conditions: 72 hours
T2 construct: fused on or other part: P12270 (Nucleoprotein TPR)
Procedure: (§2) Ba/F3-TPR-MET and Ba/F3-TPR-MET-D1228N cells were seeded at 3000 cells per well in a 96 well plate in 90 μL growth media and allowed to incubate overnight at 37° C. with 5% CO2. The following day, compounds were serially diluted from a 10 mM top dose for a 9-point 3-fold dilution curve in DMSO. Following a 100-fold dilution in growth media, a further 10-fold dilution was made into the cell plate for a final volume of 100 μL and 0.1% DMSO. Compounds and cells were incubated together for 72 hours at 37° C. with 5% CO2. The CellTiter-Glo® 2.0 Assay determines the number of viable cells in culture by quantifying ATP, which indicates the presence of metabolically active cells. Luminescence readout is directly proportional to the number of viable cells in culture. CellTiter-Glo reagent (Promega, G9243) and cell plates were allowed to equilibrate to room temperature for at least 15 min, then 100 μL of CellTiter-Glo was added to each well for a 1:1 ratio of reagent to media. Samples were placed on a shaker for 2 min prior to a 30 min incubation at room temperature protected from light. Luminescence was read on a Perkin Elmer Envision plate reader 2105 and used to calculate ICso values within the Dotmatics Knowledge Solutions Studies curve fitting environment (Dotmatics, Bishops Stortford, UK, CM23) and are presented in Table 2.

[3] = biological target: T3, Ba/F3-TPR-MET-D1228N cells (Homo sapiens, UniProt P08581, D1228N, cells depend on it); test: CellTiter-Glo Cell Viability Assay, Ba/F3-TPR-MET-D1228N; format: cell-based; conditions: 72 hours
T3 construct: fused on or other part: P12270 (Nucleoprotein TPR)
Procedure: as §2

[4] = biological target: T4, MET (Homo sapiens, UniProt P08581); test: MET Mobility Shift Assay; conditions: biochemical assay IC50; 100 μM ATP, 60 minute kinase reaction
T4 construct: purchased Carna Biosciences 08-151
Procedure: as §1, with “MET” for “MET D1228N”, “a fluorescence-based” for “a fluorescence -based”, “FLPeptide30 (5-FAM-KKKKEEIYFFF-CONH2)” for “FLPeptide30 (5-FAM-KKKKEEIYFFF -CONH2)”, “MET enzme (Carna Biosciences, 08-151)” for “MET D1228N enzyme (Signalchem, M52-12IG)”, “at 0.625” for “at 0.313”

Row | Molecule | IC50 [1] [µM] | IC50 [4] [µM] | EC50 [2] [µM] | EC50 [3] [µM]
1 | CCNCCOc1cc2nccc(Oc3c(F)cc(NC(=O)c4cnccc4OC4CC4)cc3F)c2cc1OC [Example 75, 4-cyclopropoxy-N-[4-({7-[2-(ethylamino)ethoxy]-6-methoxyquinolin-4-yl}oxy) -3,5-difluorophenyl]pyridine-3-carboxamide] | ≤ 0.1 | ≤ 0.1 | ≤ 0.1 | ≤ 0.1
2 | CNCCOc1cc2nccc(Oc3c(F)cc(NC(=O)c4cnccc4OCCOC)cc3F)c2cc1OC [Example 67, N-[3,5-difluoro-4-({6-methoxy-7-[2-(methylamino)ethoxy]quinolin-4-yl}oxy)phenyl]-4-(2-methoxyethoxy)pyridine-3-carboxamide] | ≤ 0.1 | ≤ 0.1 | 0.1 to 1 | 0.1 to 1
3 | CCOc1ccncc1C(=O)Nc1cc(F)c(Oc2ccnc3cc(OCCCNC)c(OC)cc23)c(F)c1 [Example 21, N-(3,5-difluoro-4-((6-methoxy-7-(3-(methylamino)propoxy)quinolin-4-yl)oxy)phenyl)-4-ethoxypyridine-3-carboxamide] | ≤ 0.1 | ≤ 0.1 | 0.1 to 1 | 0.1 to 1
4 | CNCCOc1ccc2c(Oc3c(F)cc(NC(=O)c4cccnc4OC4CC4)cc3F)ccnc2c1 [Example 79, 2-cyclopropoxy-N-[3,5-difluoro-4-({7-[2-(methylamino)ethoxy]quinolin-4-yl}oxy)phenyl]pyridine-3-carboxamide] | ≤ 0.1 | ≤ 0.1 | 0.1 to 1 | 0.1 to 1
5 | (S)-N-(4-((7-(2-aminopropoxy)quinolin-4-yl)oxy)-3,5-difluorophenyl)-4-cyclopropoxypyridine-3-carboxamide [Example 12] | ≤ 0.1 | ≤ 0.1 | ≤ 0.1 | ≤ 0.1
6 | CNCCOc1cc2nccc(Oc3cc(F)c(NC(=O)c4cnccc4OC)cc3F)c2cc1OC [Example 24, N-[2,5-difluoro-4-({6-methoxy-7-[2-(methylamino)ethoxy]quinolin-4-yl}oxy)phenyl]-4-methoxypyridine-3-carboxamide] | ≤ 0.1 | ≤ 0.1 | 0.1 to 1 | ≤ 0.1
7 | CNCCOc1cc2nccc(Oc3c(F)cc(NC(=O)c4ncccc4OC4CC4)cc3F)c2cc1OC [Example 77, 3-cyclopropoxy-N-[3,5-difluoro-4-({6-methoxy-7-[2-(methylamino)ethoxy]quinolin-4-yl}oxy)phenyl]pyridine-2-carboxamide] | ≤ 0.1 | ≤ 0.1 | ≤ 0.1 | ≤ 0.1
8 | CNCCOc1cc2nccc(Oc3cc(F)c(NC(=O)c4c(OC)ccnc4F)cc3F)c2cc1OC [Example 25, N-[2,5-difluoro-4-({6-methoxy-7-[2-(methylamino)ethoxy]quinolin-4-yl}oxy)phenyl]-2-fluoro-4-methoxypyridine-3-carboxamide] | ≤ 0.1 | ≤ 0.1 | 0.1 to 1 | 0.1 to 1
9 | CNCCOc1cc2nccc(Oc3ccc(NC(=O)c4cnc(N)cc4OC)c(F)c3F)c2cc1OC [Example 33, 6-amino-N-[2,3-difluoro-4-({6-methoxy-7-[2-(methylamino)ethoxy]quinolin-4-yl}oxy)phenyl]-4-methoxypyridine-3-carboxamide] | ≤ 0.1 | ≤ 0.1 |  | 
10 | CCOc1ccncc1C(=O)Nc1cc(F)c(Oc2ccnc3cc(OCCNC)ccc23)c(F)c1 [Example 11, N-(3,5-difluoro-4-((7-(2-(methylamino)ethoxy)quinolin-4-yl)oxy)phenyl)-4-ethoxypyridine-3-carboxamide] | ≤ 0.1 | ≤ 0.1 |  | 
11 | CNCCOc1cc2nccc(Oc3cc(F)c(NC(=O)c4cnc(Cl)cc4OC)cc3F)c2cc1OC [Example 26, 6-chloro-N-[2,5-difluoro-4-({6-methoxy-7-[2-(methylamino)ethoxy]quinolin-4-yl}oxy)phenyl]-4-methoxypyridine-3-carboxamide] | ≤ 0.1 | ≤ 0.1 |  | 
12 | CNCCOc1cc2nccc(Oc3ccc(NC(=O)c4cnccc4OC(F)F)c(F)c3F)c2cc1OC [Example 48, N-[2,3-difluoro-4-({6-methoxy-7-[2-(methylamino)ethoxy]quinolin-4-yl}oxy)phenyl]-4-(difluoromethoxy)pyridine-3-carboxamide] | ≤ 0.1 | ≤ 0.1 |  | 

Now from value to molecule, other results behind:

Row | IC50 [1] [µM] | IC50 [4] [µM] | Molecule | EC50 [2] [µM] | EC50 [3] [µM]
13 | ≤ 0.1 | ≤ 0.1 | O=C(Nc1cc(F)c(Oc2ccnc3cc(OCCO)ccc23)c(F)c1)c1cnccc1OC1CC1 [Example 100, 4-cyclopropoxy-N-(3,5-difluoro-4-{[7-(2-hydroxyethoxy)quinolin-4-yl]oxy}phenyl)pyridine-3-carboxamide] | 0.1 to 1 | ≤ 0.1
14 | ≤ 0.1 | ≤ 0.1 | COc1ccc2c(Oc3c(F)cc(NC(=O)c4cnccc4OC4CC4)cc3F)ccnc2c1 [Example 90, 4-cyclopropoxy-N-{3,5-difluoro-4-[(7-methoxyquinolin-4-yl)oxy]phenyl}pyridine-3-carboxamide] | 0.1 to 1 | ≤ 0.1
15 | ≤ 0.1 | ≤ 0.1 | CNCCOc1cc2nccc(Oc3c(F)cc(NC(=O)c4cnc(C)nc4OC4CC4)cc3F)c2cc1OC [Example 114, 4-cyclopropoxy-N-[3,5-difluoro-4-({6-methoxy-7-[2-(methylamino)ethoxy]quinolin-4-yl}oxy)phenyl]-2-methylpyrimidine-5-carboxamide] | 0.1 to 1 | 0.1 to 1
16 | ≤ 0.1 | ≤ 0.1 | CNCCCOc1cc2nccc(Oc3c(F)cc(NC(=O)c4cnccc4OC4CC4)cc3F)c2cc1OC [Example 84, 4-cyclopropoxy-N-(3,5-difluoro-4-((6-methoxy-7-(3-(methylamino)propoxy)quinolin-4-yl)oxy)phenyl)pyridine-3-carboxamide] | 0.1 to 1 | ≤ 0.1
17 | ≤ 0.1 | ≤ 0.1 | COc1cc2nccc(Oc3c(F)cc(NC(=O)c4cnccc4OC4CC4)cc3F)c2cc1OCCO [Example 107, 4-cyclopropoxy-N-(3,5-difluoro-4-((6-(2-hydroxyethoxy)-7-methoxyquinolin-4-yl)oxy)phenyl)pyridine-3-carboxamide] | ≤ 0.1 | ≤ 0.1
18 | ≤ 0.1 | ≤ 0.1 | COc1cc2c(Oc3c(F)cc(NC(=O)c4cnccc4OC4CC4)cc3F)ccnc2cc1OC[C@@H](C)O [Example 99, 4-cyclopropoxy-N-[3,5-difluoro-4-({7-[(2R)-2-hydroxypropoxy]-6-methoxyquinolin-4-yl}oxy)phenyl]pyridine-3-carboxamide] | ≤ 0.1 | ≤ 0.1
19 | ≤ 0.1 | ≤ 0.1 | CNCCOc1ccc2c(Oc3c(F)cc(NC(=O)c4cnccc4OC4CC4)cc3F)ccnc2c1 [Example 87, 4-cyclopropoxy-N-[3,5-difluoro-4-({7-[2-(methylamino)ethoxy]quinolin-4-yl}oxy)phenyl]pyridine-3-carboxamide] | ≤ 0.1 | ≤ 0.1
20 | ≤ 0.1 | ≤ 0.1 | CNCCOc1cc2nccc(Oc3ccc(NC(=O)c4cnccc4OC4CC4)c(F)c3F)c2cc1OC [Example 83, 4-cyclopropoxy-N-[2,3-difluoro-4-({6-methoxy-7-[2-(methylamino)ethoxy]quinolin-4-yl}oxy)phenyl]pyridine-3-carboxamide] |  | 
